Assay results taken from patent publication US20190225650A1, “PEPTIDOMIMETIC MACROCYCLES AND USE THEREOF IN REGULATING HIF1ALPHA” (AILERON THERAPEUTICS, INC., priority 2013, published 2019).
Bridge positions count the residues as written; N and C are the ends. Square brackets hold non-standard residues; d marks the D form. Peptide text beside a SMILES is read from it. Phe(4-COOH) = N[C@@H](Cc1ccc(C(=O)O)cc1)C(=O)O; R8 = C=CCCCCCC[C@@](C)(N)C(=O)O; S5 = C=CCCC[C@](C)(N)C(=O)O; Nle = CCCC[C@H](N)C(=O)O

Key:
HRE-bla ME-180 cells [1] = assay: Reporter gene assay (HRE-bla ME-180 HIF reporter, GeneBLAzer); type: cell-based, human; conditions: for EC50: 24 hour normoxia
Summary of the method: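 A FRET β-lactamase readout of HIF transcription was used. After compound treatment in 0.3% DMSO/media under normoxic conditions, 20 μl of 6× LiveBLAzer-FRET B/G (CCF4-AM) substrate was added. Plates sat 3 hr at room temperature in the dark and were read at 409 Ex/460Em and 409Ex/530Em on a Synergy 2. Inhibition was compared against DMSO vehicle controls, with chetomin as positive control.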

[2] = biological target: T1, flag-tagged HIF1α (AA 786-826) / His6-tagged p300 (AA 323-423) complex (Homo sapiens, UniProt Q09472); assay: HIF1α p300 displacement assay (TR FRET, +CHAPS); type: binding; conditions: read-out: IC50 (nM) (HIF1α_p300 Displacement + CHAPS)
T1 construct: His6-tagged p300 (AA 323-423); made in house; host or cells: E. coli (pETDuet vector)
Summary of the method: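 The co-expressed flag-HIF1α (786-826)/His6-p300 (323-423) complex, purified from E. coli with 0.1 mM ZnSO4, was used at 300 nM final with competitor peptides for 1 h at room temperature. Buffer was 150 mM NaCl, 20 mM HEPES pH 7.4, 7.5 mM CHAPS and 1 mM DTT. Anti-Flag-K (0.5 μM) and anti-His-D2 (4 nM) were then added for 2 h, and IC50s were fitted from the TR-FRET ratio.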

HRE-bla ME-180 cells [3] = assay: Cell proliferation assay (viability, MTT, 1% FBS); type: cell-based, human
Summary of the method: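 ME-180 cells (2×10^4/well) in Opti-MEM with 1% FBS were pretreated 16 h under normoxia (21% O2), vehicle 0.5% DMSO final. Incubation then continued under normoxia or hypoxia (1% O2); viable cells quantified by MTT-type CellTiter 96 assay.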

| Compound | EC50 (HRE-bla ME-180 cells [1]) [µM] | IC50 [2] [nM] | 18 h Avg % max inhibition at top conc (HIF Rptr-24 hrs normoxia) (μM) (HRE-bla ME-180 cells [1]) | Viability 1% FBS AVG (MTT V3-24 hr Normoxia) (μM) (HRE-bla ME-180 cells [3]) |
| --- | --- | --- | --- | --- |
| CCCC[C@H](NC(=O)[C@H](CCC(=O)O)NC(=O)[C@]1(C)CCCC=CCCCCCC[C@@](C)(NC(=O)[C@H](CCC(=O)O)NC(=O)[C@H](CC(=O)O)NC(=O)[C@@H](NC(=O)[C@H](CC(N)=O)NC(=O)[C@@H](NC(=O)[C@H](CCC(N)=O)NC(=O)[C@]2(C)CCCC=CCCC[C@](C)(NC(=O)[C@H](CC(C)C)NC(=O)[C@H](CCC(=O)O)NC(=O)[C@H](C)NC(=O)CNC(=O)[C@H](CCC(N)=O)NC(=O)[C@H](CC(C)C)NC(=O)[C@H](CC(C)C)NC(C)=O)C(=O)N[C@@H](CCCNC(=N)N)C(=O)N[C@@H](C)C(=O)N[C@@H](CC(C)C)C(=O)N2)C(C)C)[C@@H](C)CC)C(=O)N[C@@H](C(C)C)C(=O)N[C@@H](CC(C)C)C(=O)N[C@@H](CCCC)C(=O)N[C@@H](CO)C(=O)N[C@@H](CC(C)C)C(=O)N[C@@H](C(C)C)C(=O)N1)C(N)=O [SP-360] (Ac-LLQGAEL[S5]RAL[S5]QVNIDE[R8]VL[Nle]SLV[S5]E[Nle]-NH2; staple 8-12, 19-26) | > 30 | 200 to 400 | ++ (≤10 but <25: ++) | ++++ (≥30: ++++) |
| CC[C@H](C)[C@H](NC(=O)[C@H](Cc1ccccc1)NC(C)=O)C(=O)N[C@@H](CC(=O)O)C(=O)N[C@@H](CCC(=O)O)C(=O)N[C@@]1(C)CCCC=CCCC[C@@](C)(C(=O)N[C@@H](CC(C)C)C(=O)N[C@H](C(=O)N[C@H](C(=O)N[C@@H](CCC(=O)O)C(=O)N[C@@H](CCSC)C(=O)N[C@@H](C)C(=O)N[C@@H](C)C(=O)N[C@@H](C)C(N)=O)[C@@H](C)CC)C(C)C)NC(=O)[C@H](CCSC)NC(=O)[C@H](CC(C)C)NC(=O)[C@H](C(C)C)NC1=O [SP-117] (Ac-FIDE[S5]VLM[S5]LVIEMAAA-NH2; staple 5-9) | > 30 | > 700 | +++ (≤25 but <50: +++) | ++++ (≥30: ++++) |
| CC[C@H](C)[C@H](NC(=O)[C@H](Cc1ccccc1)NC(C)=O)C(=O)N[C@@H](CC(=O)O)C(=O)N[C@@H](Cc1ccc(C(=O)O)cc1)C(=O)N[C@@H](CCC(=O)O)C(=O)N[C@H](C(=O)N[C@@H](CC(C)C)C(=O)N[C@@H](CCSC)C(=O)N[C@@]1(C)CCCC=CCCC[C@@](C)(C(=O)N[C@@H](CCSC)C(=O)N[C@@H](C)C(=O)N[C@@H](Cc2ccccc2)C(N)=O)NC(=O)[C@H]([C@@H](C)CC)NC(=O)[C@H](C(C)C)NC(=O)[C@H](CC(C)C)NC1=O)C(C)C [SP-228] (Ac-FID[Phe(4-COOH)]EVLM[S5]LVI[S5]MAF-NH2; staple 9-13) | > 30 | 200 to 400 | +++ (≤25 but <50: +++) | ++++ (≥30: ++++) |
| CC[C@H](C)[C@H](NC(=O)[C@H](Cc1ccccc1)NC(C)=O)C(=O)N[C@@H](CO)C(=O)N[C@@H](CCC(=O)O)C(=O)N[C@@H](CCC(=O)O)C(=O)N[C@H](C(=O)N[C@@H](CC(C)C)C(=O)N[C@@H](CCSC)C(=O)N[C@@]1(C)CCCC=CCCC[C@@](C)(C(=O)N[C@@H](CCSC)C(=O)N[C@@H](C)C(=O)N[C@@H](CC(C)C)C(N)=O)NC(=O)[C@H]([C@@H](C)CC)NC(=O)[C@H](C(C)C)NC(=O)[C@H](CC(C)C)NC1=O)C(C)C [SP-230] (Ac-FISEEVLM[S5]LVI[S5]MAL-NH2; staple 9-13) | > 30 | 400 to 700 | + (<10: +) | ++++ (≥30: ++++) |
| CCCC[C@H](NC(=O)[C@H](CCC(=O)O)NC(=O)[C@]1(C)CCCC=CCCCCCC[C@@](C)(NC(=O)[C@H](CCC(=O)O)NC(=O)[C@H](CC(=O)O)NC(=O)[C@@H](NC(=O)[C@H](CC(N)=O)NC(=O)[C@@H](NC(=O)[C@H](CCC(N)=O)NC(=O)[C@H](CC(=O)O)NC(=O)[C@]2(C)CCCC=CCCC[C@](C)(NC(=O)[C@H](CCC(=O)O)NC(=O)[C@H](CCC(=O)O)NC(=O)CNC(=O)[C@H](CCC(N)=O)NC(=O)[C@H](CC(C)C)NC(=O)[C@H](CC(C)C)NC(C)=O)C(=O)N[C@@H](CC(C)C)C(=O)N[C@@H](CCCNC(=N)N)C(=O)N[C@@H](C)C(=O)N2)C(C)C)[C@@H](C)CC)C(=O)N[C@@H](C(C)C)C(=O)N[C@@H](CC(C)C)C(=O)N[C@@H](CCCC)C(=O)N[C@@H](CO)C(=O)N[C@@H](CC(C)C)C(=O)N[C@@H](C(C)C)C(=O)N1)C(=O)NCC(N)=O [SP-344] (Ac-LLQGEE[S5]LRA[S5]DQVNIDE[R8]VL[Nle]SLV[S5]E[Nle]G-NH2; staple 7-11, 19-26) | > 30 | 400 to 700 | + (<10: +) | ++++ (≥30: ++++) |
| CCCC[C@H](NC(=O)[C@H](CCC(=O)O)NC(=O)[C@@H](NC(=O)[C@@H](NC(=O)[C@H](CC(C)C)NC(=O)[C@]1(C)CCCC=CCCC[C@](C)(NC(=O)[C@H](CCC(=O)O)NC(=O)[C@H](CC(=O)O)NC(=O)[C@@H](NC(=O)[C@H](Cc2ccccc2)NC(C)=O)[C@@H](C)CC)C(=O)N[C@@H]([C@@H](C)O)C(=O)N[C@@H](CC(C)C)C(=O)N[C@@H](CCCC)C(=O)N1)C(C)C)[C@@H](C)CC)C(=O)N[C@@H](C)C(=O)N[C@@H](CC(C)C)C(N)=O [SP-139] (Ac-FIDE[S5]TL[Nle][S5]LVIE[Nle]AL-NH2; staple 5-9) | > 30 | 400 to 700 | +++ (≤25 but <50: +++) | ++ (≤5 but <15: ++) |
| CC[C@H](C)[C@H](NC(=O)[C@H](Cc1ccccc1)NC(C)=O)C(=O)N[C@@H](CC(=O)O)C(=O)N[C@@H](CCC(=O)O)C(=O)N[C@@H](CC(N)=O)C(=O)N[C@H](C(=O)N[C@@H](CC(C)C)C(=O)N[C@@H](CCSC)C(=O)N[C@@]1(C)CCCC=CCCC[C@@](C)(C(=O)N[C@@H](CCSC)C(=O)N[C@@H](C)C(=O)N[C@@H](CC(C)C)C(N)=O)NC(=O)[C@H]([C@@H](C)CC)NC(=O)[C@H](C(C)C)NC(=O)[C@H](CC(C)C)NC1=O)C(C)C [SP-235] (Ac-FIDENVLM[S5]LVI[S5]MAL-NH2; staple 9-13) | 15 to 30 | > 700 | +++ (≤25 but <50: +++) | ++++ (≥30: ++++) |

Now from value to compound, other results behind:

| EC50 (HRE-bla ME-180 cells [1]) [µM] | IC50 [2] [nM] | Compound | 18 h Avg % max inhibition at top conc (HIF Rptr-24 hrs normoxia) (μM) (HRE-bla ME-180 cells [1]) | Viability 1% FBS AVG (MTT V3-24 hr Normoxia) (μM) (HRE-bla ME-180 cells [3]) |
| --- | --- | --- | --- | --- |
| 5 to 15 | > 700 | CC[C@H](C)[C@H](NC(=O)[C@H](Cc1ccccc1)NC(C)=O)C(=O)N[C@@H](CC(=O)O)C(=O)N[C@@H](CCC(=O)O)C(=O)N[C@@H](CCC(=O)O)C(=O)N[C@H](C(=O)N[C@@H](CC(C)C)C(=O)N[C@@H](CCSC)C(=O)N[C@@]1(C)CCCC=CCCC[C@@](C)(C(=O)N[C@@H](CCSC)C(=O)N[C@@H](C)C(=O)N[C@@H](CC(C)C)C(=O)N[C@@H](CO)C(=O)N[C@@H](CCCNC(=N)N)C(N)=O)NC(=O)[C@H]([C@@H](C)CC)NC(=O)[C@H](C(C)C)NC(=O)[C@H](CC(C)C)NC1=O)C(C)C [SP-287] (Ac-FIDEEVLM[S5]LVI[S5]MALSR-NH2; staple 9-13) | ++++ (≥50: ++++) | ++++ (≥30: ++++) |
| ≤ 5 | > 700 | CCCC[C@H](NC(=O)[C@H](Cc1ccccc1)NC(=O)[C@@H](NC(=O)[C@H](C)NC(=O)[C@H](CCC(N)=O)NC(=O)[C@H](CC(=O)O)NC(=O)[C@@H](NC(=O)[C@H](Cc1ccccc1)NC(C)=O)[C@@H](C)CC)C(C)C)C(=O)N[C@@]1(C)CCCC=CCCC[C@@](C)(C(=O)N[C@@H](CCC(N)=O)C(=O)N[C@@H](C)C(=O)N[C@@H](CC(C)C)C(=O)N[C@@H](CC(C)C)C(N)=O)NC(=O)[C@H]([C@@H](C)CC)NC(=O)[C@H](C(C)C)NC(=O)[C@H](Cc2c[nH]cn2)NC1=O [SP-260] (Ac-FIDQAVF[Nle][S5]HVI[S5]QALL-NH2; staple 9-13) | ++++ (≥50: ++++) | + (<5: +) |
| 5 to 15 | > 700 | CCCC[C@@H]1NC(=O)[C@H](CC(C)C)NC(=O)[C@H](CC(N)=O)NC(=O)[C@@](C)(NC(=O)[C@H](CCC(=O)O)NC(=O)[C@H](CC(=O)O)NC(=O)[C@@H](NC(=O)[C@H](Cc2ccccc2)NC(C)=O)[C@@H](C)CC)CCCC=CCCCC2(CCCC=CCCC[C@](C)(C(=O)N[C@@H](CCCC)C(=O)N[C@@H](C)C(=O)N[C@@H](CC(C)C)C(N)=O)NC(=O)[C@H]([C@@H](C)CC)NC(=O)[C@H](C(C)C)NC(=O)[C@H](CC(C)C)NC2=O)NC1=O (some centres unmarked) [SP-208] | +++ (≤25 but <50: +++) | ++ (≤5 but <15: ++) |
| ≤ 5 | 400 to 700 | CCCC[C@H](NC(=O)[C@H](CCC(=O)O)NC(=O)[C@]1(C)CCCC=CCCCCCC[C@@](C)(NC(=O)[C@H](CCC(=O)O)NC(=O)[C@H](CC(=O)O)NC(=O)[C@@H](NC(=O)[C@H](Cc2ccccc2)NC(C)=O)[C@@H](C)CC)C(=O)N[C@@H](C(C)C)C(=O)N[C@@H](CC(C)C)C(=O)N[C@@H](CCCC)C(=O)N[C@@H](CO)C(=O)N[C@@H](CC(C)C)C(=O)N[C@@H](C(C)C)C(=O)N1)C(=O)N[C@@H](C)C(=O)N[C@@H](CC(C)C)C(N)=O [SP-195] (Ac-FIDE[R8]VL[Nle]SLV[S5]E[Nle]AL-NH2; staple 5-12) | ++++ (≥50: ++++) | ++ (≤5 but <15: ++) |
